# Source: patent US20090232848A1, “METHODS FOR CULTIVATING LAWSONIA INTRACELLULARIS” (priority 2004, published 2009)
# Read-outs that look alike come from different tables or passages of the source.
# What was measured:
# Format in all cases: cell-based, Lawsonia intracellularis
# [1] = tested on: L. intracellularis (STR isolate); details: after 10 passages; McCoy cells; cysteine hydrochloride 0.02%, no hydrogen purge
# Experimental: The bacteria were passaged by cell lysis. Supernatants and cell lysates were prepared from both flasks, as described earlier, and were used to infect fresh monolayers of McCoy cells seeded into 25 cm^2 or 75 cm^2 flasks at split ratios of 1:1 or 1:2, depending on the extent of infection as determined by immunostaining of the 48-well plate monolayers.
# The 48-well plates infected with or without cysteine hydrochloride were fixed with 80% acetone on day 5 post-infection, and stained using the immunoperoxidase and immunofluorescence methods as described previously. The percent of McCoy cells infected using hydrogen gassing versus cysteine HCl was evaluated after each bacterial passage.
# [2] = tested on: L. intracellularis swine isolate VP1; details: McCoy cells; for Monolayer infection by immunoperoxidase staining: day 5 or 6 post-infection
# Experimental: L. intracellularis swine isolate VP1 (passage 17) was used to infect McCoy cells. McCoy cells were seeded in tissue culture flasks at 1.25×10^5 cells per 25 cm^2 flask, and 1.25×10^4 cells per Trac bottle (Bibby Sterilin Ltd.; Staffordshire, United Kingdom), in DMEM supplemented with 7% fetal bovine serum (FBS). The Trac bottle was used to monitor simulative infection in the flask. The flasks and Trac bottles were incubated overnight at 37° C. in a humidified incubator with 5% CO2. The following day, cells in both the flask and Trac bottle were infected with the L. intracellularis swine isolate (passage 17) in fresh DMEM with 7% FBS. After the addition of L. intracellularis, the flasks and Trac bottles were treated in three different ways. One flask and the corresponding Trac bottle were evacuated at 15 psi of Hg vacuum and purged with pure hydrogen. A second flask and the corresponding Trac bottle were neither evacuated nor purged with hydrogen, but instead received a supplement of cysteine hydrochloride (Sigma, C-7477; St. Louis, Mo.), β-NAD and phoshatidylcholine to a final concentration of 0.01%, 5 mM and 100 ng/ml, respectively, during the first two passages, and only cysteine hydrochlride (0.02% final concentration) during the later passages. The third flask and the corresponding Trac bottle were not evacuated or purged with hydrogen, nor received any supplements. All flasks and Trac bottles were incubated at 37° C. in an incubator containing 8.0 % O2 and 8.8% CO2 and 83.2% N2. On day 2 and 5 post-infection, 50% of the media from all flasks and Trac bottles was replaced with fresh DMEM with 5% FBS with or without cysteine hydrochloride, β-NAD and phoshatidylcholine.
# On day 5 or 6 post-infection, the monolayers in the tissue culture flasks were monitored by immunoperoxidase staining of the corresponding Trac bottle cover slip. Briefly, the cover slip from the Trac bottle was removed and washed gently with Phosphate Buffered Saline (PBS), and bound to a microscope slide using a permanent glue. The cover slip then was fixed in acetone for 30 sec at room temperature. Rabbit anti-L. intracellularis polyclonal antibody, diluted 1:400 in PBS, was added to cover the entire cover slip, which was then incubated in a humidified environment at 37° C. for 30 min. The cover slip was washed gently with PBS and a 1:20 dilution of peroxidase-conjugated goat anti-rabbit IgG (H+L; Kirkegaard & Perry Laboratories, Inc.; Gaithersburg, Md.) was added to the cover slip and incubated for 30 min at 37° C. Peroxidase substrate solution was prepared by dissolving 10 mg of 3,3′-Diaminobenzidine (DAB; Sigma-Aldrich; St. Louis, Mo.) in 20 ml of PBS. After filtration through Whatman 113V filter paper (Whatman International Ltd.; Kent, United Kingdom), 40 μl of 30% H2O2 was added to the dissolved substrate. The final substrate solution was added to the cover slip and incubated at room temperature for 5 min. After rinsing with tap water, the cover slip was counterstained for 30 sec using Modified Harris Hematoxylin Solution (Sigma-Aldrich). The stained slide then was rinsed with tap water and observed under a microscope. Infection of the McCoy cells was also assessed by microscopic viewing of the bacteria in the media within the flask.
# The infected McCoy cells in the flask were lysed using a 0.1% potassium chloride (KCl) solution on day 6 or 7 post-infection. The lysed material was used to re-infect fresh McCoy cell monolayers in flasks and Trac bottles. Briefly, after removing the media from the flask, a 0.1% KCl solution was added (5 ml per 25 cm^2) and incubated at 37° C. for 5-10 min. The KCl solution was removed from the flask, and 2 ml of sucrose potassium glutamate (SPG; 0.218M sucrose, 0.0038M KH2PO4, 0.0072M K2H PO4, and 0.0049M potassium glutamate) with 5% FBS was added. A cell scraper was then used to remove the cells from the flask. They were then lysed by forcing them through a syringe fitted with a 18 ga needle. […]
# [3] = tested on: L. intracellularis hamster isolate STR; details: McCoy cells; day 5 post-infection; cysteine hydrochloride 0.02%
# Experimental: The cells were incubated overnight at 37° C. in 5% CO2, and were infected the next day with ˜5×10^5 bacteria per 25 cm^2flask. The infected flasks and the 48-well plates were evacuated at 15 psi of Hg vacuum and purged with hydrogen. A second set of flasks and corresponding Trac bottles were evacuated and purged with pure nitrogen, and cysteine hydrochloride was added to a final concentration of 0.02%. The infected flasks and plates were incubated in a bi-gas incubator at 8.0% CO2, 8.8% O2 and 83.2% N2. The flasks were re-fed with 50% volume of media on day 2 and day 5 post-infection, using DMEM with 5% FBS. A determination of the degree of infection was made on day 5 using immunoperoxidase staining. Lysis and re-infection were carried out based on the extent of infection as monitored by immunostaining of 48-well plate infections (routinely on day 7 post-infection). The media supernatant was collected from the flasks and centrifuged at 3500 g for 30 minutes. The supernatant was discarded and the pellet resuspended in SPG with 5% FBS. The monolayers were washed with PBS, followed by the addition of water and incubation at 37° C. for 15 min, at which time cells began detaching from the flask. The cells were then lysed by passaging 4 to 5 times through a syringe fitted with an 18 ga needle. The lysate was centrifuged at 350 g for 5 min to pellet the cell nuclei. […]
# [4] = tested on: L. intracellularis isolate VP1; details: cysteine HCl 0.02%; for Bacteria in the Supernatant / Bacteria in the Supernatant: motility / Monolayer infection by staining: McCoy cells; for Monolayer infection by staining: day 6 or 7 post-infection; for Flagella in lysed material by fluorescent antibody (FITC) staining: hydrochloride
# Experimental: In a separate set of experiments, L. intracellularis isolate VP1 (passage 23) was used to infect McCoy cell monolayers. The cells were then placed in a microaerophilic environment for 15 days. […] Flasks were re-fed with fresh media. […] Monolayer cells from the flask were lysed using water. Briefly, media from the flask was removed, and approximately 16 ml of sterile de-ionized water was added to the flask, followed by incubation at 37° C. for 10 min. […] The flask was then gently tapped against the palm of the hand, and a drop of the lysed material was observed under a microscope. […] A 4.25% NaCl solution was immediately added to bring the media to near normal physiological osmolarity.
# The lysed material was centrifuged at 3200×g for 15 minutes. The resultant pellet was re-suspended in 41 ml of DMEM with 7% FBS, and was used to infect fresh McCoy cells. 35 ml of this lysed L. intracellularis infective material was added to one 175 cm^2 flask seeded with McCoy cells, and 0.5 ml to one seeded Trac bottle. Both the flask and the Trac bottle were evacuated with a vacuum at 15 psi of Hg, and then purged with pure hydrogen. 5 ml and 0.5 ml of the material were also used to infect McCoy cells seeded in a 25 cm^2 flask and a Trac bottle, respectively. Following evacuation with 15 psi of vacuum and a nitrogen flush, a 5× stock solution of cysteine HCl was added to the 25 cm^2 flask and the corresponding Trac bottle to a final concentration of 0.02%. All flasks and Trac bottles were incubated at 37° C. in an incubator containing 8.0% oxygen, 8.8% carbon dioxide and 83.2% nitrogen. Re-feeding was carried out as described above; the flask and Trac bottle which received cysteine HCl were also refed to the same final concentration (0.02%).
# The infection was monitored on day 6 or 7 post-infection by immunoperoxidase staining of the corresponding cover slips as described above. Infection was also monitored by flourescent antibody staining. Briefly, cell lysate was collected on a Cytospin microscopic slide using a Cytofunnel sample chamber (Shandon Inc.; Pittsburg, Pa.) and centrifugation for 10 min at 1500 rpm. The sample was air dried and fixed in acetone for 30 sec. The smear was then covered with a 1:400 dilution of rabbit anti-L. intracellularis polyclonal serum and incubated at 37° C. for 30 min. The slide was washed gently with PBS, and a 1:20 dilution of fluorescein-labeled Goat anti-rabbit IgG (H+L; Kirkegaard & Perry Labs) was added to the smear, and the slide was incubated at 37° C. for 30 min. It was then observed under a fluorescent microscope.
# [5] = tested on: L. intracellularis swine isolate PHE/MN-001; details: p49, after 9 passages, McCoy cells, cysteine hydrochloride 0.02%
# Experimental: Two 75 cm^2 flasks were seeded in a similar manner as described for the hamster STR isolate, starting with 6×10^5 McCoy cells in DMEM with 7% FBS, and incubated overnight at 37° C. in 5% CO2. […] The following day, the flasks were infected using the supernatant and cell lysate from L. intracellularis (PHE/MN-001 isolate)-infected McCoy cells at passage 40. One flask was evacuated, supplemented with 0.02% cysteine hydrochloride, purged with hydrogen, and placed in the incubator. The second flask was supplemented with 0.02% cysteine hydrochloride and placed in the incubator without first purging using hydrogen. The two 48-well plates were infected with L. intracellularis in parallel with the two flasks, and once again served as controls for monitoring the infection and for immunostaining. The flasks and 48-well plates were incubated in the incubator at 8.0% CO2, 8.8% O2 and 83.2% N2. The flasks were re-fed with 50% volume of media on day 2 and day 5 post-infection using DMEM with 5% FBS.
# The bacteria were passaged by cell lysis, as described in earlier. […] The percent of McCoy cells infected with cysteine hydrochloride and hydrogen gassing, as compared with cysteine HCl alone, was evaluated after each bacterial passage.
# [6] = passage P18, Treatment 2 = cysteine HCl 0.01% + β-NAD 5 mM + phosphatidylcholine 100 ng/ml
# [7] = passage P18, Treatment 2 = cysteine HCl 0.01% + β-NAD + phosphatidylcholine
# [8] = passage P19, Treatment 2 = cysteine HCl 0.01% + β-NAD + phosphatidylcholine
Compound,Culture expansion from one 25 cm^2 flask (increase) [1] [fold],"Bacteria in the Supernatant [2, 6]","Monolayer infection by immunoperoxidase staining [2, 7]","Monolayer infection by immunoperoxidase staining [2, 8]","Monolayer infection by immunoperoxidase staining ([2]; passage P20, cysteine HCl 0.02% only)","Bacteria in the Supernatant ([2]; passage P21, cysteine HCl 0.02% only)",Infection by immunoperoxidase staining of cover slips [3],Bacteria in the Supernatant ([4]; passage P25),Bacteria in the Supernatant: motility ([4]; passage P25),Monolayer infection by staining ([4]; passage P26),L. intracellularis infection of McCoy cells compared to infection using hydrogen gassing [4],Viability of L. intracellularis ([4]; inactive culture after 15 days in microaerophilic environment),Flagella in lysed material by fluorescent antibody (FITC) staining ([4]; passage P25),"Flagella in lysed material by fluorescent antibody (FITC) staining ([4]; passage P25, listed as cysteine chloride)",Bacterial Counts (per ml supernatant) ([5]; Split Ratio 1:2),Bacterial Counts (per ml supernatant) ([5]; Split Ratio 1:4),Bacteria in the Supernatant ([2]; passage P20),Monolayer infection by staining ([4]; passage P25)
Cl.N[C@@H](CS)C(=O)O [cysteine hydrochloride],12,Slightly positive,Little or no infection,20%,30-40% (larger foci of,Highly positive,about 20%,"Slightly positive,",highly motile,50-60% infection,enhanced,viability could be restored,elevated flagellar expression,showed large numbers of flagella.,8.5 × 10^7 per ml supernatant,5.8 × 10^7 per ml supernatant,,
"[HH] [hydrogen, reference compound]",4,Positive,60-70%,≧80%,,,about 20%,"Slightly positive,",Normal motilty,,,,,,,,Highly positive,Lesser infection (smaller and
